Measured values taken from patent US9044015B2, “Heterocyclic compounds as pesticides” (Bayer CropScience AG, priority 2010, dated 2015).

Tests used:
Myzus persicae = assay: Myzus test (spray treatment); assay type: in vivo; details: foliar, application rate 500 g/ha, sprayed Chinese cabbage leaf discs, all stages of green peach aphid, read-out: efficacy in % (aphids killed)
Experimental: Solvent 78 parts by weight of acetone • • 1.5 parts by weight of dimethylformamide
Emulsifier: 0.5 part by weight of alkylaryl polyglycol ether
To prepare an appropriate active ingredient preparation, 1 part by weight of active ingredient is mixed with the stated amounts of solvent and emulsifier, and the concentrate is diluted with emulsifier-containing water to the desired concentration.

Meloidogyne incognita = Meloidogyne incognita test; assay type: in vivo; details: application rate 20 ppm; lettuce in sand with egg/larvae suspension
Experimental: Meloidogyne Incognita Test
Solvent: 80.0 parts by weight of acetone
Vessels are filled with sand, active ingredient solution, Meloidogyne incognita egg/larvae suspension and lettuce seeds. The lettuce seeds germinate and the plants develop. Galls develop on the roots.
After the desired time, the nematicidal action is determined by the gall formation in %. 100% means that no galls were found; 0% means that the number of galls on the treated plants corresponds to the untreated control.

[1] = Determination of the log P values (formic acid method); details: reverse-phase C18 HPLC column
Experimental: 1) Description of Method for Determination of the log P Values (Formic Aid Method)
Eluents for determination in the acidic range (pH 3.4):
Eluent A: acetonitrile+1 ml of formic acid/liter. Eluent B: water+0.9 ml of formic acid/liter.
The lambda max values were determined in the maxima of the chromatographic signals using the UV spectra from 200 nm to 400 nm.

[2] = test system: Myzus persicae organophosphate/carbamate resistant strain; assay: Myzus spray test; details: application rate 100 ppm; after 6 days; sprayed aubergine plants; 100% = all insects killed
[3] = pH 3.4, logP (HCOOH), final compounds table, HPLC reverse-phase C18, acidic range pH 3.4, 55° C.

Structure (SMILES) | pest or weed control at 500 g/ha (Myzus persicae) | efficacy in % (nematicidal action by gall formation) (Meloidogyne incognita) | chromatographic logP [1, 3] | efficacy in % [2] | chromatographic logP ([1]; pH 3.4, log P (HCOOH), preparation examples, HPLC-MS)
CCS(=O)(=O)NC(=O)c1cccc(-c2nnc(-c3cncc(F)c3)s2)n1 [Compound 70] | 100% | 100% | 2.07 |  | 
COC(=N)c1cccc(-c2cnc(-c3cccnc3)s2)n1 [Compound 49] |  |  |  | 100% | 
CC(C)(C)S(=O)(=O)NC(=O)c1cccc(-c2cnc(-c3cncc(F)c3)s2)n1 [Compound 56] | 100% | 100% | 2.77 |  | 
COC(=N)c1cccc(-c2cnc(-c3cncc(F)c3)s2)n1 [Compound 50, Methyl 6-[2-(5-fluoropyridin-3-yl)-1,3-thiazol-5-yl]pyridine-2-carboximidoate] |  |  |  | 100% | 0.9
O=C(NS(=O)(=O)c1cccs1)c1cccc(-c2nnc(-c3cncc(F)c3)s2)n1 [Compound 75] | 100% | 100% | 2.38 |  | 
O=C(NS(=O)(=O)c1ccc(Cl)s1)c1cccc(-c2nnc(-c3cncc(F)c3)s2)n1 [Compound 78] | 100% | 100% | 3.08 |  | 
